Counter-ions that a name gives are not always drawn. Like-named read-outs stand apart in the source and are kept apart here.
Tests used:
Assay type in all cases: cell-based
S. aureus S-234 = assay: In vitro antibacterial MIC/MBC test; settings: Staphylococcus aureus, S234, S. aureus S-234
Experimental: (§1) Win 52,522 and Win 35,439 were solubilized in 0.1 ml of 0.5 N NaOH/mg of compound and diluted in sterile distilled water to 160 mcg/ml. Vancomycin and methicillin were solubilized in sterile distilled water to 1250 mcg/ml of base compound. The stock solutions were sterilized by filtration through membrane filters with a 0.45 μm pore size.
(§2) The bacterial cultures listed in Table I (hereinbelow) were grown overnight at 37° C. in MHB for all cultures except the Streptococcus strains. These were grown in BHI+10% NHS. The overnight broth cultures were adjusted to an optical density of 0.10 (650 nm, B L Spectronic 20) in sterile distilled water and subsequently diluted to 6.7×10^6 cells/ml in MHB or BHI+1% NHS.
(§3) Serial two-fold dilutions of the compound solutions were prepared in MHB (or in BHI+1% NHS for tests with Streptococci) and dispensed into 96-well microtiter trays in a volume of 0.1 ml/well using a Sandy Springs (Bellco Glass Co.) dispenser. The trays were then inoculated with 0.0015 ml of a suspension containing 6.7×10^6 cells/ml of the appropriate inoculum using a MIC-2000 inoculator (Dynatech Corp.) resulting in a final inoculum of approximately 1×10^4 cells/well or 1×10^5 cells/ml. The trays were incubated at 37° C. for 18-20 hours and the minimal inhibitory concentration (MIC), defined as the lowest concentration of compound to inhibit visible bacterial growth, was recorded.
(§4) After the MIC values were recorded, the contents in the microtiter trays were thoroughly mixed on a Bellco Mini-orbital Shaker (Bellco Glass Co.) for 3 min. at a setting of 8. A portion (0.0015 ml) from each well was then transferred via an MIC-2000 inoculator to plates containing MHA or BHI agar+10% NHS. The plates were incubated at 37° C. for 18-20 hrs. The minimal bactericidal concentration (MBC), defined as the lowest concentration of compound that prevented the formation of a recognizable colony on the agar surface, was recorded.

S. aureus VA16951 = assay: In vitro antibacterial MIC/MBC test; settings: Staphylococcus aureus, S. aureus VA16951
Experimental: as §1, §2, §3, §4

S. aureus 59-81 = assay: In vitro antibacterial MIC/MBC test; settings: Staphylococcus aureus, 5981, S. aureus 59-81
Experimental: as §1, §2, §3, §4

S. epidermidis 1-3-H = assay: In vitro antibacterial MIC/MBC test; settings: Staphylococcus epidermidis, 13H, S. epidermidis 1-3-H
Experimental: as §1, §2, §3, §4

S. aureus 21-81A = assay: In vitro antibacterial MIC/MBC test; settings: Staphylococcus aureus, 2181A, S. aureus 21-81A
Experimental: as §1, §2, §3, §4

S. enterococcus 0-2-13 = assay: In vitro antibacterial MIC/MBC test; settings: 0213, S. enterococcus 0-2-13
Experimental: as §1, §2, §3, §4

S. aureus 10-81 = assay: In vitro antibacterial MIC/MBC test; settings: Staphylococcus aureus, 1081, S. aureus 10-81
Experimental: as §1, §2, §3, §4

S. aureus 13-8-A = assay: In vitro antibacterial MIC/MBC test; settings: Staphylococcus aureus, 138A, S. aureus 13-8-A
Experimental: as §1, §2, §3, §4

S. faecalis 4510 = assay: In vitro antibacterial MIC/MBC test; settings: Enterococcus faecalis, S. faecalis 4510
Experimental: as §1, §2, §3, §4

S. aureus (25923) = assay: In vitro antibacterial MIC/MBC test; settings: Staphylococcus aureus, ATCC25923, S. aureus ATCC No. 25923
Experimental: as §1, §2, §3, §4

S. faecalis (8043) = assay: In vitro antibacterial MIC/MBC test; settings: Enterococcus faecalis, ATCC8043, S. faecalis ATCC No. 8043
Experimental: as §1, §2, §3, §4

S. pyogenes 7948-15 = assay: In vitro antibacterial MIC/MBC test; settings: Streptococcus pyogenes, 794815, S. pyogenes 7948-15
Experimental: as §1, §2, §3, §4

S. aureus 24-81 = assay: In vitro antibacterial MIC/MBC test; settings: Staphylococcus aureus, 2481, S. aureus 24-81
Experimental: as §1, §2, §3, §4

S. aureus 39881 = assay: In vitro antibacterial MIC/MBC test; settings: Staphylococcus aureus, S. aureus 39881
Experimental: as §1, §2, §3, §4

S. pyogenes C203 = assay: In vitro antibacterial MIC/MBC test; settings: Streptococcus pyogenes, S. pyogenes C203
Experimental: as §1, §2, §3, §4

S. aureus = assay: In vitro MIC/MBC summary (Table II); settings: Staphylococcus aureus
Experimental: as §1, §2, §3, §4

Streptococcus sp. = assay: In vitro MIC/MBC summary (Table II); settings: 9 Streptococcus sp. strains
Experimental: as §1, §2, §3, §4

SMILES: COc1cccc(OC)c1C(=O)N[C@@H]1C(=O)N2[C@@H]1SC(C)(C)[C@@H]2C(=O)O [Methicillin, 6-(2,6-dimethoxybenzamido)penicillanic acid sodium salt]
- MBC (S. aureus S-234; read-out: MBC): 32 µg/mL
- MIC (S. aureus S-234; read-out: MIC): 8 µg/mL
- MBC (S. aureus VA16951; read-out: MBC): 8 µg/mL
- MIC (S. aureus VA16951; read-out: MIC): 4 µg/mL
- MBC (S. aureus 59-81; read-out: MBC): 64 µg/mL
- MIC (S. aureus 59-81; read-out: MIC): 32 µg/mL
- MBC (S. epidermidis 1-3-H; read-out: MBC): 4 µg/mL
- MIC (S. epidermidis 1-3-H; read-out: MIC): 2 µg/mL
- MBC (S. aureus 21-81A; read-out: MBC): 1 µg/mL
- MIC (S. aureus 21-81A; read-out: MIC): 1 µg/mL
- MBC (S. enterococcus 0-2-13; read-out: MBC): 8 µg/mL
- MIC (S. enterococcus 0-2-13; read-out: MIC): 8 µg/mL
- MBC (S. aureus 10-81; read-out: MBC): 16 µg/mL
- MIC (S. aureus 10-81; read-out: MIC): 8 µg/mL
- MBC (S. aureus 13-8-A; read-out: MBC): 2 µg/mL
- MIC (S. aureus 13-8-A; read-out: MIC): 1 µg/mL
- MBC (S. faecalis 4510; read-out: MBC): 64 µg/mL
- MIC (S. faecalis 4510; read-out: MIC): 64 µg/mL
- MBC (S. aureus (25923); read-out: MBC): 2 µg/mL
- MIC (S. aureus (25923); read-out: MIC): 2 µg/mL
- MBC (S. faecalis (8043); read-out: MBC): > 125 µg/mL
- MIC (S. faecalis (8043); read-out: MIC): > 125 µg/mL
- MBC (S. pyogenes 7948-15; read-out: MBC): 0.125 µg/mL
- MIC (S. pyogenes 7948-15; read-out: MIC): 0.25 µg/mL
- MBC (S. aureus 24-81; read-out: MBC): 2 µg/mL
- MIC (S. aureus 24-81; read-out: MIC): 1 µg/mL
- MBC (S. aureus 39881; read-out: MBC): > 125 µg/mL
- MIC (S. aureus 39881; read-out: MIC): 125 µg/mL
- MBC (S. pyogenes C203; read-out: MBC): 0.125 µg/mL
- MIC (S. pyogenes C203; read-out: MIC): 0.125 µg/mL
- MIC50 (S. aureus): 2 µg/mL
- MIC90 (S. aureus): 8 µg/mL
- MBC (S. aureus; read-out: MBC 90%): > 64 µg/mL
- MIC (S. aureus; read-out: MIC Range): 1 to 125 µg/mL
- MBC (Streptococcus sp.; read-out: MBC 50%): 0.125 µg/mL
- MBC (Streptococcus sp.; read-out: MBC 90%): 64 µg/mL
- MIC50 (Streptococcus sp.; read-out: MIC 50%): 0.25 µg/mL
- MIC90 (Streptococcus sp.; read-out: MIC 90%): 64 µg/mL

From patent US4698350A, “1-ethyl-6-fluoro-1,4-dihydro- 7-(2,6-dimethyl-4-pyridinyl)-4-oxo-3-quinolinecarboxylic acid and antibacterial use thereof” (Sterling Drug Inc., priority 1984, dated 1987)
